We go through seven compounds from patent publication US10548313B2, “Acetyl-CoA carboxylase modulators” (Monsanto Technology LLC, priority 2013, dated 2020).

SMILES strings stand for the structures. “And” between values parts separate entries of the source, which are not always exact repeats. Identical values can stand only once. Like-named read-outs stand apart in the source and are kept apart here.

Test [1] concerns the target Ustilago maydis acetyl CoA carboxylase (ACCase) (Mycosarcoma maydis (Ustilago maydis), UniProt A0A0D1DYD5). Put plainly: ACCase enzymatic assay (coupled PK/LDH, NADH OD340). Type of test: biochemical. As to the method: Ustilago maydis acetyl CoA carboxylase (ACCase) was cloned, expressed, and purified as described (Weatherly et al, Biochem. J., 2004) and the test compounds were tested in a 96-well plate format. Primary in vitro screening consisted of obtaining dose response data at 100, 33, 10, and 1 μM inhibitor. Actives in the primary screen were re-tested to establish IC50 values.
Direct detection of the conversion of acetyl CoA to malonyl CoA by ACCase was not feasible, but during this process ATP is converted to ADP which allowed for detection through a standard reaction coupling with ADP recycling to the oxidation of NADH. Thus, ACCase activity was measured via kinetic OD340 measurements of the conversion of NADH to NAD in a coupled reaction involving the conversion of phosphoenolpyruvate (PEP) to lactate.
The complete 200 ul reaction mixture contained 52.5 mM HEPES (pH8), 2.625 mM MgCl2, 1 mM ATP, 0.525 mM DTT, 11 mM NaHCO3, 1% DMSO with or without inhibitor, 1× pyruvate kinase/lactate dehydrogenase (PK/LDH), 0.3 mM NADH, 0.5 mM PEP, and 5 μg ACCase. The reactions were incubated at 30° C. for 10 minutes and then initiated by the addition of 0.33 mM acetyl CoA. The initiated reactions were read immediately via plate reader at OD340 and kinetic readings were acquired every 20 s for 15 minutes while keeping the temperature at 30° C.
A slope of the kinetic curve was determined by using the 2 to 7 minute data which was then calculated as percent inhibition relative to the no inhibitor control.
The primary screens were conducted in duplicate and the IC50's conducted in triplicate. Averages were reported along with standard deviation calculation to generate error bars.
Each plate contained its own controls and consisted of a DMSO only control, 5-fold titration series of soraphen from 2 μM to 3.2 nM, and an ADP coupled reaction control.

Test [2] deals with Saccharomyces cerevisiae. Put plainly: Yeast growth inhibition assay. To be noted: for inhibition at 3.7 µM: read-out: S. cerevisiae % growth inhibition at 48 hours, 3.7 μM; for inhibition at 11.1 µM: read-out: S. cerevisiae % growth inhibition at 48 hours, 11.1 μM; for inhibition at 33.3 µM: read-out: S. cerevisiae % growth inhibition at 48 hours, 33.3 μM; for inhibition at 100 µM: read-out: S. cerevisiae % growth inhibition at 48 hours, 100 μM. It counts as cell-based. The method, then: Yeast cells (Ade2 strain) were grown in liquid YPD (1% yeast extract, 2% peptone, 2% dextrose) for 16 hours at 30° C. from previously sub-cultured plates of Saccharomyces cerevisiae. The OD600 of the overnight culture was checked via spectrophotometer and diluted to a concentration of 2×10^4 cells/ml.
Chemistry stocks were dissolved in DMSO to a concentration of 10 mM. Chemistry stocks were further diluted in a 96-well stock plate to obtain final concentrations of 100, 33, 10 and 1 μM in 1% DMSO. The final concentrations of the soraphen positive controls were 400, 40, and 3.2 nM. The negative controls on each plate included a background subtraction control containing yeast and 1% DMSO (without chemistry) and a second contamination control containing YPD (with no yeast) and 1% DMSO (without chemistry).
98 μl liquid YPD was added to 2 μl diluted stock of DMSO per well and mixed thoroughly. After mixing, 100 μl of the diluted yeast solution was added to bring the final yeast concentration to 1×10^4 cells/ml or 2000 cells per well. An initial spectrophotometric reading at OD600 was conducted on the entire plate and served as the 0 hour time point used to subtract any background. […] […] […] All experiments were conducted in triplicate. Averages were reported along with standard deviation calculation to generate error bars. Each plate contained its own controls and consisted of inoculated+DMSO, non-inoculated+DMSO, and a titration series of soraphen at 400, 40, and 3.2 nM.

The test system of test [3] is Collectotrichum graminicola. Put plainly: Fungal growth inhibition assay, Collectotrichum graminicola. It counts as cell-based. To be noted: Colletotrichum graminicola, 48 hours, read-out: C. graminicola % growth inhibition at 48 hours. The method, then: (§1) Spores were isolated from previously sub-cultured plates of Botrytis cinerea, Phytophthora capsici, Fusarium moniliforme, Fusarium viguliforme, Collectotrichum graminicola, and Diplodia maydis. All spores were filtered and collected in a sterile glass bowl to isolate the spores from the mycelia. The isolation and sub-culture plate condition for each pathogen is described below.
Spore isolation for C. graminicola: A 1-2 week old oatmeal agar (pre-mix) plate was removed from 26° C. incubator with a light/dark 12 hour cycle and the mycelia were treated with 10-15 ml of filter sterilized distilled water. The mycelia were scraped to re-suspend the spores. The spores were then collected in a sterile filter bowl containing a piece of sterile cheesecloth and poured into a conical tube.
(§2) After spore isolation, pathogen spores were counted on a hemocytometer to calculate the spores/ml. In 17% V8 liquid media containing 3 g/L CaCO3, isolated spores were diluted to individual concentrations based on the growth curves at 48 hours of each pathogen. The spore concentrations for each pathogen were as follows: B. cinerea—10,000 sp/ml; P. capsici—300 sp/ml; F. monliforme—500 sp/ml; F. virguliforme—500 sp/ml; C. graminicola—3,000 sp/ml; and D. maydis—3,000 sp/ml.
(§3) Chemistry stocks were dissolved in DMSO at 2.5 mg/ml. Chemistry was diluted in a 96-well stock plate in five-fold dilutions to obtain a final concentration of 50, 10, and 2 ppm in vitro. The final concentration of the positive control after the five-fold dilutions was as follows: soraphen—0.5, 0.1, and 0.02 ppm. Negative controls on each plate included 2% DMSO, water containing spores and media, and a blank for background subtraction.
(§4) In a 96-well plate the spore solution, chemistries, and controls were combined to make the final solution concentrations mentioned above. Upon addition of the chemistry, an OD600 reading was done to assess chemical precipitation. The 96-well plates were incubated in plastic tubs containing wet paper towels under the following conditions, 25° C. in the dark for P. capsici and B. cinerea or 26° C. with light/dark cycle for C. graminicola, D. maydis, F. virguliforme, F. monliforme. Plate readings were repeated at 24 and 48 hrs. Visual ratings were performed at 24 and 48 hrs to check for precipitation and confirm efficacy. Visual and OD600 ratings of the chemistry at 48 hours were compared to the 2% DMSO control to determine the percent of pathogen growth inhibition.

Test [4] relates to Botrytis cinerea. Put plainly: Fungal growth inhibition assay, Botrytis cinerea. To be noted: 48 hours, read-out: B. cinerea % growth inhibition at 48 hours. Type of test: cell-based.
Description: as §1
Spore isolation for B. cinerea: A 2-3 week old V8 (17%)+CaCO3 (3 g/L)+20 g agar plate was removed from room temperature and the mycelia were treated with 5-10 ml of filter sterilized Triton X 100 (.05%). The mycelia were scraped to re-suspend the spores. The spores were then collected in a sterile filter bowl containing a fluted piece of filter paper and poured into a conical tube.
as §2, §3, §4

Test [5] concerns Diplodia maydis. Put plainly: Fungal growth inhibition assay, Diplodia maydis. Conditions: 48 hours, read-out: D. maydis % growth inhibition at 48 hours. Type of test: cell-based. The method, then: as §1
Spore isolation for D. maydis: A 3-4 week old PDA (pre-mix) plate was removed from 26° C. incubator with a light/dark 12 hour cycle and the mycelia were treated with 6-7 ml of sterile distilled water, scraped into a sterile petri dish, and smashed to open the pycnidia. The spores were then collected in a sterile filter bowl containing a fluted piece of filter paper and poured into a conical tube.
as §2, §3, §4

Test [6] has as its system Phytophthora capsici. Put plainly: Fungal growth inhibition assay, Phytophthora capsici. Type of test: cell-based. Conditions: 48 hours, read-out: P. capsici % growth inhibition at 48 hours.
Description: as §1
Spore isolation for P. capsici: Three to five days prior to the assay a 2-3 week old V8 (17%)+CaCO3 (3 g/L)+20 g agar plate was removed from a dark 25° C. incubator and cut up into small chunks. One plate was separated into two deep well plates and rinsed with sterile distilled water three times. The cut up pieces were incubated under light in a sterile filter hood with 25 ml of sterile distilled water. On the day of the assay the water was removed and 5-7 ml of fresh sterile distilled water was added. One plate was incubated at 4° C. for 45-60 minutes and then placed at room temperature for about 45-60 minutes. The spores were collected in a sterile filter bowl containing a fluted piece of filter paper. The spores were vortexed in a conical tube for 30-60 seconds to remove the flagella of the zoospores after isolation.
as §2, §3, §4

The mark [7] stands for this setting: Table 1B, racemate vs single enantiomers, read-out: ACCase Inhibitory Activity of Racemic Mixtures and Single Enantiomers IC50.
Where [8] appears, read: Table 1A, values marked a are a result of two or more experiments, read-out: ACCase Inhibitory Activity IC50.

Sequence of Ustilago maydis acetyl CoA carboxylase (ACCase) (A0A0D1DYD5 1-2185): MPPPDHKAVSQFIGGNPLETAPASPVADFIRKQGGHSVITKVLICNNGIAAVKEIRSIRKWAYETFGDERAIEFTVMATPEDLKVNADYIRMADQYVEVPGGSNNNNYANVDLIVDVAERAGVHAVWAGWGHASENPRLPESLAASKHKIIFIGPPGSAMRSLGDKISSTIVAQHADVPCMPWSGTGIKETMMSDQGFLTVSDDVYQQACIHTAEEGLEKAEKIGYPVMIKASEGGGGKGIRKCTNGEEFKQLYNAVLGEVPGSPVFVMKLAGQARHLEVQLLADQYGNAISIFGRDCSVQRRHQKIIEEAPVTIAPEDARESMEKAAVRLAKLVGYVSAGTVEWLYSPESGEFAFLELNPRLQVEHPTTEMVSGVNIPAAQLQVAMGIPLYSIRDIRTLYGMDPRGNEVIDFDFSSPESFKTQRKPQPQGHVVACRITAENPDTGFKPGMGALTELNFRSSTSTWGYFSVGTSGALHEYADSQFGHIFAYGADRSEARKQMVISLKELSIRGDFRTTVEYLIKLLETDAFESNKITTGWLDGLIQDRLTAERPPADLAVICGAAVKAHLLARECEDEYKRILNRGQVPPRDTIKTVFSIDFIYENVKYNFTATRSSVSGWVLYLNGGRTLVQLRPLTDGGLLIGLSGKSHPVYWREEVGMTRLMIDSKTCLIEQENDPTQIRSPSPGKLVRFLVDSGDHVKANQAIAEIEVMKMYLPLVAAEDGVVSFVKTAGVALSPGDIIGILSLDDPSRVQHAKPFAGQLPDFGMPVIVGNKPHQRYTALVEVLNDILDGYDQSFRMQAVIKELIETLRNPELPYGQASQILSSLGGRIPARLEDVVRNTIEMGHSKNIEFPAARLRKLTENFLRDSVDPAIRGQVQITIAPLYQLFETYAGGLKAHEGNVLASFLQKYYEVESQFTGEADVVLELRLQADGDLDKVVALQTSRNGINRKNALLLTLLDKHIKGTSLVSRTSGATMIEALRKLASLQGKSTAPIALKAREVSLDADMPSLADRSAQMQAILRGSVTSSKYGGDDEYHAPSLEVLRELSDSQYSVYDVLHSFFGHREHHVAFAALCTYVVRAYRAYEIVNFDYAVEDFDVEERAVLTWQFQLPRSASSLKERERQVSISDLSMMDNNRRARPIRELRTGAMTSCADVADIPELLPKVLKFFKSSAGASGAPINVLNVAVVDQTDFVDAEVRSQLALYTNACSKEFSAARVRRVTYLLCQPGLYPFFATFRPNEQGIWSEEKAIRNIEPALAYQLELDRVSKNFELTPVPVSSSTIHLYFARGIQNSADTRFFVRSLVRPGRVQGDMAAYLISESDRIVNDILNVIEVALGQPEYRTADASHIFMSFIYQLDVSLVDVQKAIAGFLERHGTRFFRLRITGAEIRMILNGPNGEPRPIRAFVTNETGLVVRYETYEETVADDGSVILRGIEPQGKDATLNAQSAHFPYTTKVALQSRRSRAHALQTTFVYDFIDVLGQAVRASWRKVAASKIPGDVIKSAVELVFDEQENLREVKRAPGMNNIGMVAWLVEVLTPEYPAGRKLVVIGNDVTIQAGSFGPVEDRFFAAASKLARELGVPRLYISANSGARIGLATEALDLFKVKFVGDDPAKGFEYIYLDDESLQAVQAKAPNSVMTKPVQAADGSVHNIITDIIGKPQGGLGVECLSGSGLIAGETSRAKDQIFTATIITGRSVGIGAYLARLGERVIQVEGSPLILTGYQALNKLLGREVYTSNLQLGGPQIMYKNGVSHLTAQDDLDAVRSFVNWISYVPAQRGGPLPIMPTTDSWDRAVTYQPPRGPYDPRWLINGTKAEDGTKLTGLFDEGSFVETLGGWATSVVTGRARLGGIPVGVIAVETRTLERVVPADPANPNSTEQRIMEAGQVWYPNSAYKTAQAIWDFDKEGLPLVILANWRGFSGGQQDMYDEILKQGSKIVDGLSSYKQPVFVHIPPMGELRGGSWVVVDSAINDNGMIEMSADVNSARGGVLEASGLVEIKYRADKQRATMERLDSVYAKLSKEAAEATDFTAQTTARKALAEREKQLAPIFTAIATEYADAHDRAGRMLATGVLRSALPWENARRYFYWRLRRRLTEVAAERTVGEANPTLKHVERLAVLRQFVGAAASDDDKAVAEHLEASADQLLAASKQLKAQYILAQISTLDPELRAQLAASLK

Regarding `N#Cc1c(C(F)(F)F)cc(-c2cccs2)nc1SC(C(=O)O)c1ccccc1` (racemic) [Formula Ia-ii, 2-((3-cyano-6-(thiophen-2-yl)-4-(trifluoromethyl)pyridin-2-yl)thio)-2-phenylacetic acid], the IC50 in test [1] (setting [7]) came out at 2.02 µM. In test [2], the inhibition at 3.7 µM came to 7%, the inhibition at 11.1 µM stood at 0%, the inhibition at 33.3 µM amounted to 12% and the inhibition at 100 µM came to 51%.
As to `COc1ccc(-c2cc(-c3cccs3)nc(SC(C(=O)O)c3ccccc3)c2C#N)cc1` (racemic) [Formula Ia-xiv, 2-((3-cyano-4-(4-methoxyphenyl)-6-(thiophen-2-yl)pyridin-2-yl)thio)-2-phenylacetic acid], in test [3], the inhibition at 2 ppm turned out to be 6%, the inhibition at 10 ppm was determined as 32% and the inhibition at 50 ppm was found to be 79%. In addition, the IC50 in test [1] (setting [7]) is 0.092 µM and 0.14 µM. In test [4], the inhibition at 2 ppm is 14% and the inhibition at 10 ppm is 8%.
For `N#Cc1c(SC(C(=O)O)c2ccccc2)nc(-c2cccs2)c2c1CCCC2` (centres unmarked) [Formula Ia-vii, 2-((4-cyano-1-(thiophen-2-yl)-5,6,7,8-tetrahydroisoquinolin-3-yl)thio)-2-phenylacetic acid], in test [3], the inhibition at 2 ppm is 11%, the inhibition at 10 ppm came to 19% and the inhibition at 50 ppm came to 71%. In addition, in test [1] (setting [8]), the IC50 was 3.81 µM. In test [5], the inhibition at 2 ppm was 11%, the inhibition at 10 ppm came out at 46% and the inhibition at 50 ppm is 64%. Besides, in test [6], the inhibition at 2 ppm is 0%, the inhibition at 10 ppm came out at 9% and the inhibition at 50 ppm came out at 100%.
Consider `COc1ccc(-c2cc(C(F)(F)F)c(C#N)c(SC(C(=O)O)c3ccccc3)n2)c(OC)c1` (centres unmarked) [Formula Ia-viii, 2-((3-cyano-6-(2,4-dimethoxyphenyl)-4-(trifluoromethyl)pyridin-2-yl)thio)-2-phenylacetic acid], for which, in test [1] (setting [8]), the IC50 turned out to be 1.72 µM. In test [2], the inhibition at 3.7 µM came out at 6%, the inhibition at 11.1 µM was determined as 23%, the inhibition at 33.3 µM worked out at 62% and the inhibition at 100 µM was found to be 100%.
With `N#Cc1c(C(F)(F)F)cc(-c2ccc(Br)cc2)nc1SC(C(=O)O)c1ccccc1` (centres unmarked) [Formula Ia-x, 2-((6-(4-bromophenyl)-3-cyano-4-(trifluoromethyl)pyridin-2-yl)thio)-2-phenylacetic acid], the IC50 in test [1] (setting [8]) was 1.95 µM. For the same compound, in test [2], the inhibition at 3.7 µM came out at 12%, the inhibition at 11.1 µM was determined as 13%, the inhibition at 33.3 µM amounted to 46% and the inhibition at 100 µM came to 99%. In test [4], the inhibition at 2 ppm came out at 0%, the inhibition at 10 ppm was 12% and the inhibition at 50 ppm was found to be 25%.
For the compound `N#Cc1c(-c2ccccc2)cc(-c2ccccc2)nc1SC(C(=O)O)c1ccccc1` (centres unmarked) [Formula Ia-xii, 2-((3-cyano-4,6-diphenylpyridin-2-yl)thio)-2-phenylacetic acid], the inhibition at 2 ppm in test [3] came to 6%; in test [5], 42%; in test [6], 16%; in test [4], 0%. The inhibition at 10 ppm in test [3] came to 35%; in test [5], 59%; in test [6] it was 36%; in test [4], 6%. Also, the inhibition at 50 ppm in test [3] stood at 80%; in test [5] it was 86%; in test [6], 22%; in test [4], 19%. Besides, the IC50 in test [1] (setting [8]) is 0.266 µM.
On to `COc1ccc(-c2cc(-c3ccc[s+]3[O-])nc(OC(C(=O)O)c3ccccc3)c2C#N)cc1` (centres unmarked) [Formula Ia-xxviii, 2-((3-cyano-4-(4-methoxyphenyl)-6-(1-oxidothiophen-2-yl)pyridin-2-yl)oxy)-2-phenylacetic acid], for which, in test [1] (setting [8]), the IC50 was determined as 0.196 µM. For the same compound, in test [4], the inhibition at 2 ppm amounted to 14% and the inhibition at 10 ppm came out at 27%.
